Patent US20110188043A1, “METHOD AND APPARATUS FOR MONITORING PROCESSES IN LIVING CELLS” (Yissum, Research Development Company of The Hebrew …, priority 2007, published 2011)

Columns and labels:
HeLa cells = assay: FTIR-SPR of cholesterol enrichment/depletion of the cell membrane; type: cell-based, human; details: λ=1.08 μm, 37° C.; mβCD-chol at t=0, mβCD at t=15 for 3 min
Source text: The penetration of cholesterol into the plasma membrane of the HeLa cells was studied with the FTIR-SPR technique of the invention (similar studies using SPR in the visible range were reported by Besenicar et al., [Biochimica et Biophysica Acta-Biomembranes, 177, 175 (2008).]. It is well-known that cholesterol enters mostly into the plasma membrane rather than into cytoplasm. Therefore, to achieve high sensitivity to membrane-related events, the near-infrared wavelength range was chosen, λsp=1÷1:08 μm, characterized by a relatively low SPR penetration depth.
The HeLa cells were grown on an SF-11 glass prism coated with 35-nm-thick gold film. The prism with the cells was mounted into a flow chamber and was equilibrated in growth medium for 5-7 minutes at 37° C. Then 10 mM of mfβCD-chol (methyl-beta-cyclodextrin loaded with cholesterol) was added, which is known to enrich the cells by cholesterol. The FTIR-SPR spectra was measured before and after adding the drugs. […] This corresponds to a refractive index increase because cholesterol has a higher refractive index than water. In contrast, when a similar chemical, mβCD, which is not loaded with cholesterol, was added (at t=15 for 3 min) to a growth solution the SPR is blue-shifted, which corresponds to a refractive index decrease. […]

[1] = test system: Human melanoma (MEL 1106) cells; assay: FTIR-SPR measurements of Tfn-induced SPR signal shifts in a cell monolayer on an Au-coated ZnS prism; type: cell-based; details: for SPR signal shift on cell exposure to ligand: 5 μg/ml of Tfn, cells on Au-coated ZnS prism; for change in the average refraction index of cells Δn: calculated as Δn=ΔR/S at 4425 cm^−1
Experimental: Surface plasmon (SP) was excited using Kretchmann's geometry as illustrated in FIG. 3A employing the Bruker FTIR spectrometer (Equinox 55—Bruker Optik GmbH, Ettlingen, Germany) equipped with a KBr beam splitter as mid-IR source, and a right-angle ZnS prism having a 20×40 mm base (ISP Optics, Inc., Irvington, N.Y, US) coated with an 18-nm-thick gold film (electron-beam evaporation). Cells were cultured on the gold surface, as described below. The prism and cells were attached to a flow chamber mounted on a goniometer, in such way that the cells on the gold-coated base faced the flow chamber's volume (0.5 ml). The flow chamber was filled with cell culture medium, resulting in direct contact between the medium and the gold layer, or cells cultured on that layer. The medium was passed through the chamber at a constant flow rate (5 μl/min) during the entire experiment, using a motorized bee syringe pump equipped with a variable speed controller. The temperature of the medium flowing through the chamber was controlled (±0.1° C.). The infrared light from the output window of the FTIR instrument passed through a collimator, consisting of a 1-mm diameter pinhole mounted between two gold coated off-axis parabolic mirrors, m1 and m2, with focal lengths of about 76.2 mm and 25.4 mm, respectively, along with a grid polarizer and an iris. The collimated beam (˜4 mm in diameter) was reflected from the ZnS prism and focused by an additional parabolic mirror, m3, onto a liquid-nitrogen-cooled MCT (HgCdTe) detector, mounted on the goniometer.
Human melanoma (MEL 1106) cells were cultured on a 10-cm dish in Dolbecco's modified Eagle's medium (D-MEM, Biological Industries, Israel), supplemented with 4.5 g/l D-glucose, 10% antibiotics, and 10% fetal calf serum, as previously described for HeLa cells [Ziblat et al., 2006]. These cells were used in the SPR experiments, and their culture on Au coated prisms was performed as follows: upon reaching 70% confluence, cells were detached from the dish by trypsin C (0.05% Trypsin/EDTA in Puck's saline A; Biological Industries, Israel) treatment, and brought to a cell density of about 1.8×10^5 cells/ml in complete growth medium. With reference to FIG. 7, three milliliters of cell suspension 29 were seeded on top of the Au-coated ZnS prism 27 mounted onto a home-made polycarbonate holder, such that the cell suspension 29 covered the entire prism's base 28. Cells were allowed to attach for at least 3 hrs in a CO2 incubator (5% CO2, 37° C., 90% humidity). Thereafter, growth medium (5 ml) was added and the prism 27 was placed in a CO2 incubator for an additional 2-3 days, until a uniform and nearly confluent monolayer of cells (above 70%; ˜30 cells per 1000 μm^2) covered the Au-surface.
In the initial phase of each experiment, cells cultured on an Au-coated prism were exposed to serum-free DMEM for 3 hours at […] for depleting the cells from internal pools of Tfn contributed by the serum. The prism with the cultured cells was then attached to the flow chamber, which was rapidly filled with pre-warmed (37° C.) minimal essential medium (MEM) containing Hank's salts (GIBCO), 20 mM Hepes, pH 7.2, and 5 μg/ml BSA (MEM-BSA). The temperature in the flow chamber was adjusted to 37° C.±0.1° C., unless otherwise indicated. Thereafter, the angle of incidence in the SPR configuration was set to θ=35.5°. […] These parameters were optimal, allowing maximal sensitivity (S=ΔR/Δn), and reasonable SP penetration depth/propagation length.
The reflectivity of the s-polarized beam was used as a background for subsequent measurements. The SPR signal is the ratio of the reflectivities obtained for the p-polarized and s-polarized beams. The FTIR-SPR set-up of the invention repeatedly measured the reflectivity spectra. This was done every 25 seconds with a 4-cm^−1 wavenumber resolution and with 16-scan averaging. The SPR measurements were carried out continuously for 15-20 minutes, until a stable SPR signal was recorded. […]

Melanoma cells = assay: Time-lapse confocal imaging of fluorescently tagged-Tfn uptake; type: cell-based, human
Experimental: Melanoma cells were cultured to ˜50% confluence on glass bottom culture dishes (35 mm dish, 14 mm Microwell; MatTek, Co., MA, USA). Cells were first exposed to growth medium lacking serum for 3 hrs prior to the experiment, and then washed three times with internalization buffer (150 mM NaCl, 20 mM Hepes, pH 7.4, 1 mM CaCl2, 5 mM KCl, 1 mM MgCl2, 10 mM Glucose). Following the last wash, internalization buffer containing 0.1 μM sulforhodamine green (SRG) (Biotium, Hayward, Calif.) was added to the medium. Cells were imaged (FIG. 10A—confocal imaging of live cells performed simultaneously in the green and red channels, about 30 sec (designated time 0) after cell exposure to the ligand) with an Olympus FV-1000 confocal microscope equipped with an on-scope incubator (Life Image Services, Bazel, Switzerland), which controls temperature and humidity, and provides an atmosphere of 5% CO2. A 60×/NA=1.35 oil immersion objective was used. […] First, one plane of focus was acquired, and Rhodamine Red'-holo Tfn (5 μg/ml; Jackson ImmunoResearch) was introduced into the imaging buffer. Confocal images of both the SRG (Ex: 514 nm; Em: 535-565 nm) and Rhodamine Red-holo-Tfn (Ex: 543 nm; Em: 560-660 nm) were acquired from the same section every 10 or 20 sec. A similar protocol was used for Lissamine Rhodamine-apo-Tfn, except that the SRG was imaged using 488-nm excitation and a 505-525-nm emission filter. The FV1000 was equipped with the ZDC (Zero Drift Controller) option, to maintain the same focus plane throughout the entire period of imaging.
The images were processed using ImageJ [Rasband, W. S., ImageJ, U.S. National Institutes of Health, Bethesda, Md., USA, http://rsb.info.nih.gov/ij/, 1997-2007] to determine fluorescence levels within cells as follows: First the despeckle filter (essentially a median filter with a 3×3 kernel) was applied to remove point noise and the SRG image was used to determine the cell boundaries; then, the average fluorescence intensity inside the cells (F(t)intracellular) was divided by the average fluorescence intensity in a region of interest outside the cells (<F(t)>extracellular). This procedure was adopted based on the assumption that there is insignificant depletion of labeled Tfn in the medium, so that the fluorescence in the medium should remain constant.
Then, the fluorescence levels within the bounded area were determined in the red channels for each time frame. Background fluorescence levels measured before the addition of Rhodamine Red-Tfn were subtracted from values measured in the same channel during ligand introduction.

Melanoma 1106 cell = assay: FTIR-SPR of ferrotransferrin uptake with long-wavelength surface plasmon; type: cell-based, human; details: λ=2.54 μm
Source text: The FTIR-SPR technique of the invention was applied to study transferrin-induced clathrin-mediated endocytic processes that introduce Fe ions into the cell.
The same process was studied using a long-wavelength surface plasmon at λ=2.54 μm. Its penetration depth, δzd=1.2 μm (FIG. 20), is deep enough to penetrate the cells, although it senses mostly the cell periphery. […] The kinetics of the SPR reflectivity closely follows the fluorescence kinetics in the cell periphery (FIG. 27A), as expected. […] The obvious advantage of the SPR technique is that it is label-free. […] This rules out the possibility that the SPR shift results from accumulation of organic molecules in the cell (this would increase the refractive index). […] This is consistent with the biological picture of endocytosis that includes transferrin-induced vesicular transport.

[2] = test system: human red blood cells (RBCs); assay: FTIR-SPR measurement of glucose uptake by erythrocyte suspension; type: cell-based; details: λ=4 μm, 22° C., erythrocyte suspension in PBS
Experimental: In the following section measurements of glucose uptake by erythrocyte suspension in the PBS medium are described. Briefly, fresh human red blood cells (RBCs) were washed four times in PBS by centrifugation. The supernatant and buffy coat cells were discarded and RBCs were resuspended in glucose-free PBS to yield ce=5% v/v. For complete glucose depletion, cells were incubated for 60 min at 22° C. in PBS. Then, RBCs were centrifuged and resuspended in fresh PBS containing the required concentrations of D-glucose supplemented with L-glucose, to keep the total glucose concentration (osmolarity) equal to 20 mM. The SPR measurements were performed at 22° C. to slow down cellular glycolysis. The measurements were performed using a ZnS prism coated with a 12-nm thick Au film. […] Although the sensitivity at this wavelength is low (FIG. 19A), the use of such a long wavelength here is mandatory in order to sense the processes inside erythrocytes. The average distance between the erythrocytes is Dece^1/3=17 μm. The surface plasmon propagation length, Lx=30 μm (FIG. 21), exceeds the distance between erythrocytes.

methyl-β-cyclodextrin [mβCD, reference compound]
SPR shift after addition to growth medium (HeLa cells): blue-shifted
effect on holo-Tfn-induced SPR signal shift (cholesterol depletion / replenishment) ([1]; mβCD 3 mM for 15 min at 37° C., rinsed, then holo-Tfn): diminished compared with untreated cells

CN(C)CCCN1c2ccccc2Sc2ccc(Cl)cc21 [CPZ, Chlorpromazine, reference compound]
effect on rate of holo-Tfn uptake into the cells (fluorescence) (Melanoma cells; CPZ treatment followed by 90 min of drug washout, 37° C.): significantly decreased the rate of holo-Tfn uptake
SPR signal shift immediately after cell exposure to the drug ([1]; 100 μM CPZ in MEM/BSA, 37° C.): sizeable shift of the SPR signal towards shorter wavelengths
effect on holo-Tfn-induced SPR signal shifts ([1]; 100 μM CPZ, then approximately 90 min washout, compared with untreated cells): diminished SPR signal shifts
blue shift in the SPR signal relative to that induced by Tfn ([1]; CPZ treatment per se): 10 times
washout time after which a steady SPR signal was measured ([1]; CPZ washout with plain MEM/BSA): ~30 min
SPR signal shift on removal (washout) with plain MEM/BSA [1]: ongoing decrease

holo-Tfn: Human apo-Tfn (transferrin) loaded with iron, which converts it to holo-Tfn
SPR shift upon introduction into the solution (Melanoma 1106 cell): blue-shifted
cell fluorescence intensity over time (Melanoma cells; holo-Ft tagged with Rhodamine Red, Melanoma 1106 cell): fluorescence intensity increases and then achieves saturation
SPR signal shift on cell exposure to ligand ([1]; 37° C.): time-dependent shifts of the SPR minimum towards shorter wavelengths
Tfn-induced SPR shifts ([1]; 19° C.): diminished SPR shifts
Tfn-induced SPR shifts ([1]; 30° C.): larger SPR shifts
Tfn-induced SPR shifts ([1]; 37° C.): maximal shifts
change in the average refraction index of cells Δn [1]: −4*10^−4
time over which the SPR signal increased before levelling off ([1]; holo-Tfn, 37° C.): 2 to 3 min
SPR signal shift on removal (washout) with plain MEM/BSA [1]: red-shift in the SPR signal

O=C[C@H](O)[C@@H](O)[C@H](O)[C@H](O)CO [D-glucose]
reflectivity in the SPR regime upon addition [2]: reflectivity in the SPR regime rapidly increases with time, until saturation is reached

apo-Tfn: Human apo-Tfn dialyzed against sodium citrate to remove possible iron traces; tagged with Lissamine Rhodamine for imaging
accumulation of tagged Tfn fluorescence within the cells (Melanoma cells; 37° C.): accumulated within the cells at slower rates
SPR signal shift on cell exposure to ligand ([1]; 37° C.): small SPR signal shifts
change in the average refraction index of cells Δn [1]: smaller than −1*10^−4

Rhodamine Red-holo-Tfn: Rhodamine Red tagged holo-Tfn (Jackson ImmunoResearch) used for fluorescence imaging [reference compound]
ligand internalization rates (fluorescence) (Melanoma cells; lower temperatures (30° C. vs 37° C.)): reduced ligand internalization rates
